The results in this text go back to patent US20050222423A1, “Carboxylic acid derivative” (TAISHO PHAR[…]., LTD., priority 2001, published 2005).

The Solubility is the dissolved amount per volume that the medium holds.

One data set addresses T1, Flt-1 (Homo sapiens, UniProt P17948).
T1 construct: expressed in transfected cells; host or cells: NIH3T3 cells (G418-selected)
In words: VEGF Receptor-Binding Test ([125I]-VEGF binding to NIH3T3 cells in which Flt-1 was forced to be expressed). The conditions noted are these: test compound concentration 1 μg/ml; [125I]-VEGF 25 pM; 90 minutes at 4° C. As for the experimental part: According to the method described in a document (Cell Growth & Differentiation, vol. 7, pp. 213-221, 1996), the following tests were carried out.
NIH3T3 cells, in which Flt-1 was forced to be expressed, were seeded on a 24-well collagen-coated plate (7×10^4 cells/well), and were cultured in Dulbecco's modified Eagle's medium (DMEM) containing 10% bovine serum and 200 μg/ml of Geneticin G418 for 24 hours at 37° C. under an atmosphere of 5% carbon dioxide gas. The cells were preincubated in Buffer A [containing 10 mM HEPES (N-2-hydroxyethylpiperazine-N′-2-ethanesulfonic acid) and 0.1% BSA (bovine serum albumin) in DMEM] for 30 minutes at 4° C. Subsequently, the medium was replaced with Buffer B (containing 10 mM HEPES and 0.5% BSA in DMEM). […] The radioactivity of the lysed cells in each well was measured by means of a gamma counter, and a total binding quantity of [^125I]-VEGF was calculated. Non-specific binding quantity of [^125I]-VEGF was measured by competition assay in the presence of 10 nM non-labeled VEGF. The specific binding quantity of [^125I]-VEGF was calculated from the difference between the total binding quantity of [^125I]-VEGF and non-specific binding quantity of ^125I]-VEGF. The binding inhibition index of the test compounds was calculated by the following equation.

For data set [1] the following is noted: pH 6.9; phosphate buffer 20 mM; 25° C.
Procedure: 1 mg of a test compound was weighed out in a threaded test tube, 1 ml of a phosphate buffer (pH: 6.8; 20 mM; ion intensity=0.15) was added thereto and, after shaking for 2 hours at room temperature under light-shielded condition, was incubated for 22 hours at 25° C. A supernatant obtained by centrifuging the test tube for 10 minutes at 3000 rpm at 25° C. was further centrifuged for 10 minutes at 11000 rpm at 25° C. The thus-obtained supernatant was diluted with a water/acetonitrile (1:1) mixture with a dilution ratio of 2 times to 21 times to prepare a sample solution (A). Also, 0.5 mg of the test compound was dissolved in 5 ml of acetonitrile, and diluted two times with acetonitrile to prepare a standard solution (B). 10 μl of the sample solution (A) and 10 μl of the standard solution (B) were subjected to measurement according to HPLC method to determine a peak area of the test compound in each of the solutions. The solubility (mg/ml) of the test compound was calculated according to the following equation using the measured values.
Column temperature: 40° C.

≈ marks a conversion by molar mass, not a printed value.

T1 sequence (P17948 27-1338): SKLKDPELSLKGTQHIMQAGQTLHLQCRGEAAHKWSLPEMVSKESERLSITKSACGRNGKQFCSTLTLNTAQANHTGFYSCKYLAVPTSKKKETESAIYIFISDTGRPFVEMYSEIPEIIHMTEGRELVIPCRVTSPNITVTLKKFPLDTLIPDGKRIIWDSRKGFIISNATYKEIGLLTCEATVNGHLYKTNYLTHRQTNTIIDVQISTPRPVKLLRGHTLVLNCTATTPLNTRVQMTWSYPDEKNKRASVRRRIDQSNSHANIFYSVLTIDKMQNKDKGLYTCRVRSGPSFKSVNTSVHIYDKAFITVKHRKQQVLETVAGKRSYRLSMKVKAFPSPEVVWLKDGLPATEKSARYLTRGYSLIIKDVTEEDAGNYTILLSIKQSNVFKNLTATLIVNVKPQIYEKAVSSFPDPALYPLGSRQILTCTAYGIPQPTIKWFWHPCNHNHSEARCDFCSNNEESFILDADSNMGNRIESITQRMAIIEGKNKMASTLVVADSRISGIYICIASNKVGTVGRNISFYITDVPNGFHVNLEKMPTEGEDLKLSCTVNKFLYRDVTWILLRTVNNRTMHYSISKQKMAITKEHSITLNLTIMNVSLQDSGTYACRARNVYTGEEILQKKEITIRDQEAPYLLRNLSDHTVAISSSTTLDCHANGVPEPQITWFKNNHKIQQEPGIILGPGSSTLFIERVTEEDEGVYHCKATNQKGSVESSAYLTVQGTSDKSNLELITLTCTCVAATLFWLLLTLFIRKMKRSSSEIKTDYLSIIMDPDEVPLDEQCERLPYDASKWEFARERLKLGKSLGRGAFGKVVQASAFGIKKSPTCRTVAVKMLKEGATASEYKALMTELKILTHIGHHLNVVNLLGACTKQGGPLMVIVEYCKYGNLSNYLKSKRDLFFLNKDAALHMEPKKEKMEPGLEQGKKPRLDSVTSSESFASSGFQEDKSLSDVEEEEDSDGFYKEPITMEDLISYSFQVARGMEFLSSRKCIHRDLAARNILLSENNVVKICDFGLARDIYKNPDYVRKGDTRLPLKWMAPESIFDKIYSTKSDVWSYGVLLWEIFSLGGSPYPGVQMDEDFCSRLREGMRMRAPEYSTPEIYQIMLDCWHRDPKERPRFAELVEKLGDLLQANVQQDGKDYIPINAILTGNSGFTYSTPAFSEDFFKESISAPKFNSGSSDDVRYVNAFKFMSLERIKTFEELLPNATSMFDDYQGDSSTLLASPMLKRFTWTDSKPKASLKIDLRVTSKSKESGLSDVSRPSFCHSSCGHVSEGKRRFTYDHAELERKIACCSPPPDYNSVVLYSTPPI

Turning to `CCCCCCCCCCCCCCCCCCOc1ccc(CCC(=O)Nc2ccc(Oc3ccc(C(=O)O)cc3)c(C(=O)O)c2)cc1` [a, 5-Amino-2-(4-carboxyphenoxy)-N-[3-{4-(1-octadecyloxy)-phenyl}propionyl]benzoic acid], the “Inhibition Index” value on Flt-1 turned out to be 65%. The Solubility in data set [1] is 0.029 µg/mL (≈ 0.043 µM).
